Laboratory results published in patent publication US20250127169A1, “PLANTS HAVING INCREASED TOLERANCE TO HERBICIDES” (BASF Agricultural Solutions Seed US LLC, priority 2021, published 2025).
Where two headings read alike, the source gives them in different places.

What was measured:
[1] = target: PPO AMATU WT (SEQ ID NO: 1) (Amaranthus tuberculatus, UniProt Q0NZW9); test: PPO enzyme assay (recombinant); assay type: biochemical; settings: 150 μM Protogen, molar concentration for 50% enzyme inhibition
[2] = tested on: Soybean cv Jake WT (non-transgenic); assay type: in vivo; settings: post, single plants
Method: Soybean cv Jake is transformed as previously described by Siminszky et al., Phytochem Rev. 5:445-458 (2006). After regeneration, transformants are transplanted to soil in small pots, placed in growth chambers (16 hr day/8 hr night; 25° C. day/23° C. night; 65% relative humidity; 130-150 microE m-2 s-1) and subsequently tested for the presence of the T-DNA via Taqman analysis. After a few weeks, healthy, transgenic positive, single copy events are transplanted to larger pots and allowed to grow in the growth chamber. An optimal shoot for cutting is about 3-4 inches tall, with at least two nodes present. Each cutting is taken from the original transformant (mother plant) and dipped into rooting hormone powder (indole-3-butyric acid, IBA). The cutting is then placed in oasis wedges inside a bio-dome. The mother plant is taken to maturity in the greenhouse and harvested for seed. Wild type cuttings are also taken simultaneously to serve as negative controls. The cuttings are kept in the bio-dome for 5-7 days and then transplanted to 3 inch pots and then acclimated in the growth chamber for two more days. Subsequently, the cuttings are transferred to the greenhouse, acclimated for approximately 4 days prior to spray. T0 or 2-week old T1 plants are sprayed with a treatment of the phenyluracils as disclosed SUPRA and optionally photosynthesis inhibitor diuron as negative control. Herbicide injury evaluations are taken at 2, 7, 14 and 21 days after treatment.
Evaluation performed 3 Days After Treatment (DAT) and 1 Week after Treatment (WAT) and shown as injury (0-9) relative to non-transgenic treated plants. Injury Scale: 0-9, 0=no injury, 9=maximum injury. Note: segregating lines.
The following gives a definition of the injury scores measured above: • Score Description of injury • 0 No Injury • 1 Minimal injury, only a few patches of leaf injury or chlorosis. • 2 Minimal injury with slightly stronger chlorosis. Overall growth points remain undamaged. • 3 Slightly stronger injury on secondary leaf tissue, but primary leaf and growth points are still undamaged. • 4 Overall plant morphology is slightly different, some chlorosis and necrosis in secondary growth points and leaf tissue. Stems are intact. Regrowth is highly probable within 1 week. • 5 Overall plant morphology is clearly different, some chlorosis and necrosis on a few leaves and growth points, but primary growth point is intact. Stem tissue is still green. Regrowth is highly probably within 1 week. • 6 Strong injury can be seen on the new leaflet growth. Plant has a high probability to survive only through regrowth at different growth points. Most of the leaves are chlorotic/necrotic but stem tissue is still green. May have regrowth but with noticeable injured appearance. • 7 Most of the active growth points are necrotic. There may be a single growth point that could survive and may be partially chlorotic or green and partially necrotic. Two leaves may still be chlorotic with some green; the rest of the plant including stem is necrotic. • 8 Plant will likely die, and all growth points are necrotic. One leaf may still be chlorotic with some green. The remainder of the plant is necrotic. • 9 Plant is dead.

[3] = tested on: Soybean CD215 WT (non-transgenic); assay type: in vivo; settings: post, single plants

COC(=O)C(OC)Oc1ccccc1Oc1cc(-n2c(=O)cc(C(F)(F)F)n(C)c2=O)c(F)cc1Br (stereo not drawn) [phenyluracil 1, methyl 2-[2-[2-bromo-4-fluoro-5-[3-methyl-2,6-dioxo-4-(trifluoromethyl)pyrimidin-1-yl]phenoxy]phenoxy]-2-methoxy-acetate]
IC50 [1]: 0.716 nM

COC(=O)C(OC)Oc1ccccc1Oc1cc(-n2c(=O)cc(C(F)(F)F)n(C)c2=O)c(F)cc1Br (stereo not drawn) [Phenyluracil No. 1]
injury (0-9) ([2]; 25 g/ha + 1% MSO, 1WAT): 9 (Plant is dead.) | injury (0-9) ([2]; 25 g/ha + 1% MSO, 3DAT): 9 (Plant is dead.) | injury (0-9) ([2]; 50 g/ha + 1% MSO, 1WAT): 9 (Plant is dead.) | injury (0-9) ([2]; 50 g/ha + 1% MSO, 3DAT): 9 (Plant is dead.) | injury (0-9) ([2]; 100 g/ha + 1% MSO, 1WAT): 9 (Plant is dead.) | injury (0-9) ([2]; 100 g/ha + 1% MSO, 3DAT): 9 (Plant is dead.) | injury (0-9) ([3]; 25 g/ha + 1% MSO, 1WAT): 9 (Plant is dead.) | injury (0-9) ([3]; 25 g/ha + 1% MSO, 3DAT): 9 (Plant is dead.) | injury (0-9) ([3]; 50 g/ha + 1% MSO, 1WAT): 9 (Plant is dead.) | injury (0-9) ([3]; 50 g/ha + 1% MSO, 3DAT): 9 (Plant is dead.) | injury (0-9) ([3]; 100 g/ha + 1% MSO, 1WAT): 9 (Plant is dead.) | injury (0-9) ([3]; 100 g/ha + 1% MSO, 3DAT): 9 (Plant is dead.)

CCOC(=O)C(OC)Oc1ccccc1Oc1cc(-n2c(=O)cc(C(F)(F)F)n(C)c2=O)c(F)cc1Br (stereo not drawn) [phenyluracil 2, ethyl 2-[2-[2-bromo-4-fluoro-5-[3-methyl-2,6-dioxo-4-(trifluoromethyl)pyrimidin-1-yl]phenoxy]phenoxy]-2-methoxy-acetate]
IC50 [1]: 0.323 nM

COC(Oc1ccccc1Oc1cc(-n2c(=O)cc(C(F)(F)F)n(C)c2=O)c(F)cc1Br)C(=O)O (stereo not drawn) [phenyluracil 3, 2-[2-[2-bromo-4-fluoro-5-[3-methyl-2,6-dioxo-4-(trifluoromethyl)pyrimidin-1-yl]phenoxy]phenoxy]-2-methoxy-acetic acid]
IC50 [1]: 0.183 nM
